Results as given in patent US5023376A, “Reduction of nitrosamine formation” (Interox America, priority 1989, dated 1991).
Entries after “also recorded” stand apart in the source; their conditions may differ. Counter-ions that a name gives are not always drawn. Like-named read-outs stand apart in the source and are kept apart here.

How the values were obtained:
[1] = residual nitrosamine content measured by gas chromatography - thermal energy analyzer; conditions: for Residual Nitrosamine: Table 3; for Residual Nitrosamines: Table 2, sum of dimethylnitrosamine and dodecylmethylnitrosamine, mole ratio about 4.3:1
Description: In addition to determining the effect of the phosphonates upon the extent of the reaction, the residual content of nitrosamines was independently measured by gas chromatography - thermal energy analyzer, and Table 2 below gives the sum of the two principal nitrosamines, namely dimethylnitrosamine and dodecylmethylnitrosamine.

[2] = oxidation of dodecyldimethylamine with hydrogen peroxide under transition metal stress conditions in presence of phosphonate or other chelating agent (residual peroxide/amine, amine oxide yield, amine conversion)
Description: The residual amounts of peroxide and amine are the measured amounts in the mixture, the A O yield indicated is the weight percentage of measured amine oxide based on the amount of amine employed, assuming a purity of 97.5% and the amine conversion is based on the weight of the amine material (as 100%) that has been consumed.

[3] = chelating agent:metals mole ratio 4.3:1
[4] = Table 3, chelating agent:metals mole ratio 4.3:1
[5] = Table 1, amine oxide, based on amine employed, assuming purity of 97.5%, stress conditions, mole ratio about 4.3:1
[6] = Table 1, phosphonate pre-mixed with the hydrogen peroxide solution (Ex 3)
[7] = Table 1, stress conditions, 2.5 ppm metals, phosphonate:metal mole ratio about 4.3:1
[8] = Table 1, weight of amine consumed, stress conditions, mole ratio about 4.3:1
[9] = Table 3, lower mole ratio 2.15:1 (Ex 10)
[10] = Table 1, mole ratio ATMP:metals 7.3:1 (C 5)
[11] = Table 1, stress conditions, 2.5 ppm metals, […]

SMILES	Residual Nitrosamine [1, 3]	A O yield [2, 4]	Amine Conversion [2, 4]	Peroxide Consumed [2, 4]	Residual Nitrosamines [1]	A O yield [2, 5]	Residual Amine [2, 7]	Residual Peroxide [2, 7]	Amine Conversion [2, 8]	also measured
CC(O)(P(=O)(O)O)P(=O)(O)O [HEDP, hydroxyethylidene-1,1-diphosphonic acid]	10024 ppb	32.1 wt %	48.2 wt %	99.6 wt %						effectiveness in the amine oxidation process (in words) ([2]; stress conditions, listed as (hydroxyethylidene)diphosphonic acid): significantly inferior; effectiveness in the amine oxidation process (in words) ([2]; stress conditions, listed as C12): ineffective
O=C(O)CN(CC(=O)O)C1CCCCC1N(CC(=O)O)CC(=O)O (stereo not shown) [CDTA, cyclohexane-1,2-diaminotetra(acetic acid), sodium salt]	3279 ppb	34.4 wt %	68.1 wt %	99.9 wt %						
O=P(O)(O)CN(CCCCCCN(CP(=O)(O)O)CP(=O)(O)O)CP(=O)(O)O [HDTMP, hexamethylenediaminetetra(methylene phosphonic acid)]	3834 ppb	37.0 wt %	58.7 wt %	99.6 wt %						effectiveness in the amine oxidation process (in words) ([2]; stress conditions, listed as C11): singularly ineffective; effectiveness in the amine oxidation process (in words) ([2]; stress conditions, listed as hexamethylenediaminotetra(methylenephosphonic acid)): significantly inferior
O=C(O)CN(CCN(CC(=O)O)CC(=O)O)CCN(CC(=O)O)CC(=O)O [DTPA, diethylenetriaminepenta(acetic acid), sodium salt]	7017 ppb	83.9 wt %	83.2 wt %	99.6 wt %						
O=C([O-])CN(CCN(CC(=O)[O-])CC(=O)[O-])CC(=O)[O-].[Na+].[Na+].[Na+].[Na+] [EDTA, ethylenediaminetetra(acetic acid), sodium salt]	3421 ppb									A O yield [2]: 35.3 wt %; Amine Conversion [2]: 54.8 wt %; Peroxide Consumed [2]: 99.9 wt %
O=P(O)(O)CN(CCN(CP(=O)(O)O)CP(=O)(O)O)CCN(CP(=O)(O)O)CP(=O)(O)O [DTPMP, diethylenetriaminepenta(methylenephosphonic acid), sodium salt]					251 ppb	96.2 wt %	1.6 wt %	0.72 wt %	94.4 wt %	Residual Nitrosamine ([1]; lower mole ratio 2.15:1 (Ex 10)): 1031 ppb; A O yield [2, 6]: 97.2 wt %; Amine Conversion [2, 6]: 96.7 wt %; Residual Amine [2, 6]: 0.9 wt %; Residual Peroxide [2, 6]: 0.66 wt %; A O yield [2, 9]: 98.8 wt %; Amine Conversion [2, 9]: 98.3 wt %; Peroxide Consumed [2, 9]: 83.1 wt %; effectiveness in the amine oxidation process (in words) ([2]; stress conditions, sodium salt): very great amelioration of the problem; also recorded: equally as good, or possibly even slightly better when introduced via the hydrogen peroxide solution
O=P(O)(O)CN1CCN(CP(=O)(O)O)CCN(CP(=O)(O)O)CCN(CP(=O)(O)O)CCN(CP(=O)(O)O)CCN(CP(=O)(O)O)CC1 [HCMP, hexacyclenehexa(methylenephosphonic acid)]					1056 ppb	97.1 wt %	0.9 wt %	0.76 wt %	96.8 wt %	effectiveness in the amine oxidation process (in words) ([2]; stress conditions): very great amelioration of the problem
O=P(O)(O)CN(CP(=O)(O)O)C1CCCCC1N(CP(=O)(O)O)CP(=O)(O)O (stereo not shown) [CDTMP, cyclohexanediaminotetra(methylenephosphonic acid), sodium salt]					1950 ppb	97.7 wt %	0.8 wt %	0.67 wt %	97.3 wt %	effectiveness in the amine oxidation process (in words) ([2]; stress conditions): very great amelioration of the problem
O=P(O)(O)CN(CCN(CP(=O)(O)O)CP(=O)(O)O)CCN(CP(=O)(O)O)CP(=O)(O)O [DTPMPA]	1591 ppb	96.5 wt %	96.1 wt %	86.4 wt %						
O=P(O)(O)CN(CP(=O)(O)O)CP(=O)(O)O [ATMP, aminotris(methylenephosphonic acid) sodium salt]					11036 ppb	38.3 wt %			40.5 wt %	effect on residual nitrosamine content (in words) ([1]; text conclusion from Table 2): significantly worse; A O yield [2, 10]: 63.1 wt %; Amine Conversion [2, 10]: 65.7 wt %; Residual Amine [2, 10]: 9.9 wt %; Residual Peroxide [2, 10]: 0.02 wt %; Residual Amine [2, 11]: 17.3 wt %; Residual Peroxide [2, 11]: 0.02 wt %; effectiveness in the amine oxidation process (in words) ([2]; stress conditions, listed as C4, sodium salt): less amine conversion and a lower yield of amine oxide than the corresponding reaction to which no phosphonates had been introduced; effectiveness in the amine oxidation process (in words) ([2]; stress conditions, listed as C5, sodium salt): rather better than C4, but still very markedly worse than the results for Ex2/3, Ex6 or Ex7; effectiveness in the amine oxidation process (in words) ([2]; stress conditions, sodium salt): did not perform with similar effectiveness
